Source: patent US20240140986A1, “SYNTHETIC URSOLIC ACID DERIVATIVES AND METHODS OF USE THEREOF” (REATA PHARMACEUTICALS, INC., priority 2021, published 2024)
Read-outs that look alike come from different tables or passages of the source.

How the values were obtained:
[1] = test system: IFNγ-induced NO production in RAW 264.7 cells; experiment: Nitric Oxide Suppression Assay (IFNγ-induced NO, Griess nitrite readout); type: cell-based, mouse; conditions: for IC50: Mus musculus, read-out: Avg NO IC50 (nM) (Mean ± SD); for Avg NO IC50 Relative to RTA402 (fold): Table 2, ratio to RTA402
Outline: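 RAW 264.7 mouse macrophages in RPMI 1640 with 0.5% FBS were pretreated 2 h with compound (0.1% DMSO final), then stimulated with 20 ng/mL IFNγ for 24 h at 37° C. Supernatant nitrite was read by Griess absorbance at 525 nm against a nitrite standard curve, normalized to DMSO-IFNγ wells; IC50 from curve fit. Viability by WST-1.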

[2] = test system: Nrf2 / ARE-dependent luciferase in AREc32 reporter cell line; experiment: AREc32 luciferase reporter activation (Nrf2 induction); type: cell-based, human; conditions: for EC (2-fold): Homo sapiens, Arec32; for Relative Avg AREc32 EC2X Relative to RTA402 (fold): ratio to RTA402
Outline: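 EC2X is the concentration raising luminescence 2-fold above DMSO-treated cells, from a nonlinear-regression dose–response fit. Compounds (0.03–1000 nM) were applied for nineteen hours, starting one day after seeding 20,000 reporter cells per well. Luciferase was read with One-Glo reagent.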

[3] = RAW264.7, Table 2, RAW 264.7 cells, 2 h pretreatment, 20 ng/mL interferon gamma 24 h
[4] = RAW264.7, Table 3, ursolic acid derivatives
[5] = Table 2, concentration increasing luminescence 2-fold above vehicle, 19 h treatment, read-out: Avg AREc32 EC2X (nM) (Mean ± SD)
[6] = Table 3, ursolic acid derivatives, read-out: Avg ARE EC-2X (nM) (Mean ± SD)

| Structure (SMILES) | IC50 [1, 3] [nM] | IC50 [1, 4] [nM] | Avg NO IC50 Relative to RTA402 (fold) [1] [fold] | EC (2-fold) [2, 5] [nM] | EC (2-fold) [2, 6] [nM] | Relative Avg AREc32 EC2X Relative to RTA402 (fold) ([2]; Table 2) |
| --- | --- | --- | --- | --- | --- | --- |
| C[C@@H]1[C@H]2[C@H]3C(=O)C=C4[C@@]5(C)C=C(C#N)C(=O)C(C)(C)[C@@H]5CC[C@@]4(C)[C@]3(C)CC[C@@]2(N2CCOC2=O)CC[C@H]1C [Compound T59] | 16 ± 5 | 16 ± 5 | 5.03 ± 1.61 | 15.4 ± 1.2 | 15.4 ± 1.2 | 1.23 ± 0.26 |
| C[C@@H]1[C@H]2[C@H]3C(=O)C=C4[C@@]5(C)C=C(C#N)C(=O)C(C)(C)[C@@H]5CC[C@@]4(C)[C@]3(C)CC[C@@]2(n2ccnn2)CC[C@H]1C [Compound T60] | 18.2 ± 6.2 |  | 4.94 ± 1.78 | 8.89 ± 1.13 |  | 0.791 ± 0.111 |
| C[C@@H]1[C@H]2[C@H]3C(=O)C=C4[C@@]5(C)C=C(C#N)C(=O)C(C)(C)[C@@H]5CC[C@@]4(C)[C@]3(C)CC[C@@]2(n2cnnn2)CC[C@H]1C [Compound T61] | 12.5 ± 7.3 |  | 4.11 ± 0.26 | 7.53 ± 2.25 |  | 0.601 ± 0.122 |
| C[C@@H]1[C@H]2[C@H]3C(=O)C=C4[C@@]5(C)C=C(C#N)C(=O)C(C)(C)[C@@H]5CC[C@@]4(C)[C@]3(C)CC[C@@]2(n2ccnc2)CC[C@H]1C [Compound T62] | 23.4 ± 5.4 | 23.4 ± 5.4 | 8.76 ± 3.40 | 19.7 ± 2 | 19.7 ± 2 | 1.55 ± 0.28 |
| C[C@@H]1[C@H]2[C@H]3C(=O)C=C4[C@@]5(C)C=C(C#N)C(=O)C(C)(C)[C@@H]5CC[C@@]4(C)[C@]3(C)CC[C@@]2(n2cc(Br)cn2)CC[C@H]1C [Compound T63] | 58.4 ± 9.1 |  | 23.3 ± 10.3 | 76 ± 9.6 |  | 6.8 ± 1.1 |
| C[C@@H]1[C@H]2[C@H]3C(=O)C=C4[C@@]5(C)C=C(C#N)C(=O)C(C)(C)[C@@H]5CC[C@@]4(C)[C@]3(C)CC[C@@]2(n2cccn2)CC[C@H]1C [Compound T64] | 35.8 ± 6.1 |  | 14.80 ± 8.92 | 64 ± 7.6 |  | 6.07 ± 0.87 |
| CCNC(=O)N[C@]12CC[C@@H](C)[C@H](C)[C@H]1[C@H]1C(=O)C=C3[C@@]4(C)C=C(C#N)C(=O)C(C)(C)[C@@H]4CC[C@@]3(C)[C@]1(C)CC2 [Compound T65] | 25.5 ± 4.1 |  | 7.42 ± 3.56 | 12.9 ± 2 |  | 1.14 ± 0.20 |
| COC(=O)N[C@]12CC[C@@H](C)[C@H](C)[C@H]1[C@H]1C(=O)C=C3[C@@]4(C)C=C(C#N)C(=O)C(C)(C)[C@@H]4CC[C@@]3(C)[C@]1(C)CC2 [Compound T66] | 11 ± 3 |  | 4.64 ± 0.70 | 9.91 ± 0.25 |  | 0.857 ± 0.057 |
| C[C@@H]1[C@H]2[C@H]3C(=O)C=C4[C@@]5(C)C=C(C#N)C(=O)C(C)(C)[C@@H]5CC[C@@]4(C)[C@]3(C)CC[C@@]2(F)CC[C@H]1C [Compound T67] | 12.2 ± 3.5 |  | 3.79 ± 1.16 | 11.5 ± 1.6 |  | 0.984 ± 0.119 |
| C[C@@H]1[C@H]2[C@H]3C(=O)C=C4[C@@]5(C)C=C(C#N)C(=O)C(C)(C)[C@@H]5CC[C@@]4(C)[C@]3(C)CC[C@@]2(O)CC[C@H]1C [Compound T68] | 7.24 ± 0.77 |  | 2.70 ± 0.28 | 7.56 ± 0.77 |  | 0.575 ± 0.141 |
| Cc1nnc([C@]23CC[C@@H](C)[C@H](C)[C@H]2[C@H]2C(=O)C=C4[C@@]5(C)C=C(C#N)C(=O)C(C)(C)[C@@H]5CC[C@@]4(C)[C@]2(C)CC3)o1 [Compound T69] | 16.9 ± 5 | 16.9 ± 5 | 4.94 ± 1.27 | 8.08 ± 1.98 | 8.08 ± 1.98 | 0.673 ± 0.139 |
| C[C@@H]1[C@H]2[C@H]3C(=O)C=C4[C@@]5(C)C=C(C#N)C(=O)C(C)(C)[C@@H]5CC[C@@]4(C)[C@]3(C)CC[C@@]2(C(=O)N2CCC2)CC[C@H]1C [Compound T70] | 19.6 ± 6.1 |  | 8.82 ± 3.07 | 21.6 ± 1.3 |  | 1.78 ± 0.34 |
| C[C@@H]1[C@H]2[C@H]3C(=O)C=C4[C@@]5(C)C=C(C#N)C(=O)C(C)(C)[C@@H]5CC[C@@]4(C)[C@]3(C)CC[C@@]2(C(=O)N2CCCC2)CC[C@H]1C [Compound T71] | 19.7 ± 1.8 |  | 13 ± 2.7 | 29.3 ± 8.1 |  | 2.95 ± 0.14 |
| C[C@@H]1[C@H]2[C@H]3C(=O)C=C4[C@@]5(C)C=C(C#N)C(=O)C(C)(C)[C@@H]5CC[C@@]4(C)[C@]3(C)CC[C@@]2(C(=O)NO)CC[C@H]1C [Compound T72] | 36.1 ± 13.8 |  | 20.20 ± 5.71 | 17.2 ± 7 |  | 1.71 ± 0.33 |
| CONC(=O)[C@]12CC[C@@H](C)[C@H](C)[C@H]1[C@H]1C(=O)C=C3[C@@]4(C)C=C(C#N)C(=O)C(C)(C)[C@@H]4CC[C@@]3(C)[C@]1(C)CC2 [Compound T73] | 23.1 ± 6.6 |  | 7.02 ± 1.96 | 7.93 ± 0.82 |  | 0.681 ± 0.159 |
| C[C@@H]1[C@H]2[C@H]3C(=O)C=C4[C@@]5(C)C=C(C#N)C(=O)C(C)(C)[C@@H]5CC[C@@]4(C)[C@]3(C)CC[C@@]2(N2CCC2=O)CC[C@H]1C [Compound T74] | 21 ± 7.6 | 21 ± 7.6 | 5.91 ± 0.94 | 20 ± 2 | 20 ± 2 | 1.67 ± 0.13 |
| C[C@@H]1[C@H]2[C@H]3C(=O)C=C4[C@@]5(C)C=C(C#N)C(=O)C(C)(C)[C@@H]5CC[C@@]4(C)[C@]3(C)CC[C@@]2(CN2C(=O)CCC2=O)CC[C@H]1C [Compound T75] | 3.23 ± 0.65 |  | 1.46 ± 0.46 | 2.47 ± 0.64 |  | 0.242 ± 0.070 |
| COC(=O)CC[C@]12CC[C@@H](C)[C@H](C)[C@H]1[C@H]1C(=O)C=C3[C@@]4(C)C=C(C#N)C(=O)C(C)(C)[C@@H]4CC[C@@]3(C)[C@]1(C)CC2 [Compound T76] | 14.8 ± 2.8 |  | 9.13 ± 1.38 | 8.7 ± 0.63 |  | 1.1 ± 0.3 |
| C[C@@H]1[C@H]2[C@H]3C(=O)C=C4[C@@]5(C)C=C(C#N)C(=O)C(C)(C)[C@@H]5CC[C@@]4(C)[C@]3(C)CC[C@@]2(CCC(=O)O)CC[C@H]1C [Compound T77] | 8.75 ± 4.81 |  | 2.31 ± 0.20 | 3.16 ± 1.11 |  | 0.263 ± 0.085 |
| CNC(=O)CC[C@]12CC[C@@H](C)[C@H](C)[C@H]1[C@H]1C(=O)C=C3[C@@]4(C)C=C(C#N)C(=O)C(C)(C)[C@@H]4CC[C@@]3(C)[C@]1(C)CC2 [Compound T78] | 2.43 ± 0.95 |  | 0.683 ± 0.093 | 2.33 ± 0.78 |  | 0.194 ± 0.058 |
| CCNC(=O)CC[C@]12CC[C@@H](C)[C@H](C)[C@H]1[C@H]1C(=O)C=C3[C@@]4(C)C=C(C#N)C(=O)C(C)(C)[C@@H]4CC[C@@]3(C)[C@]1(C)CC2 [Compound T79] | 4.5 ± 1.84 |  | 1.25 ± 0.13 | 4.32 ± 0.5 |  | 0.361 ± 0.028 |
